The results in this text go back to patent publication US20250297015A1, “DRUG CONDITIONING REGIMEN FOR SICKLE CELL DISEASE” (NEW YORK BLOOD CENTER, INC., priority 2022, published 2025).

Common to all, as to format: in vivo
The test system of data set [1] is SS Townes mice. The experiment in a line: Peripheral blood response (Hb, Hct, reticulocytes, WBC) to GBT-1118 in SCD mouse model. Here is the method: (§1) This study uses a SCD mouse model, SS Townes mice, to evaluate the effects of GBT-1118, the murine analog of voxelotor, to mobilize hematopoietic progenitor cells (HPC). GBT-1118 (approximately 16 mg/mouse/day) was administered via chow (4 grams of GBT-1118 per kg of chow) daily for a month. The mice were then administered a single dose of plerixafor (10 mg/kg) via subcutaneous injection. […] Peripheral blood was collected in all groups prior to and two-and three-weeks post treatment with GBT-1118 (or control) to assess hemoglobin (Hgb), hematocrit (Hct), aged neutrophils, and circulating HPCs. One to two hrs after plerixafor, peripheral blood was collected for circulating HPC (LSKF) enumeration. Assay results in the groups are compared using ANOVA or Kruskal-Wallis testing.

Data set [2] deals with peripheral blood hematopoietic progenitor cells (HPC), LSKF cells. The data set can be described thus: Mobilization of peripheral blood hematopoietic progenitor cells (LSKF) in SCD mouse model. The procedure:
as §1
Gating with and without CD45^+ was performed due to the erythroid hyperplasia seen in SCD, where CD45^+ expression decreases along with erythroid maturation (Boulais et al. Immunity 49:627-639, 2018) and the degree of erythroid hyperplasia in each mouse was unknown. The percentage of CD45^+ cells ranged from 60-80% per sample. […] As red cell transfusion tends to decrease circulating hematopoietic stem cells (HSCs) (Tang A et al, Blood 2021), this may be due to the increased bone marrow HSCs (FIGS. 4A and 4B) spilling into peripheral blood due to residual mesenchymal stem cell dysfunction.

The subject of data set [3] is bone marrow HPCs and hematopoietic stem cells (HSCs). The data set can be described thus: Bone marrow HPCs and HSCs with and without plerixafor in SCD mouse model. As to conditions: SS Townes mice. Here is the method:
as §1
(§2) Also evaluated were bone marrow HPCs and hematopoietic stem cells (HSCs) with and without plerixafor and peripheral blood inflammatory markers (aged neutrophils, sVAM-1, P-selectin, and E-selectin) with and without plerixafor.
Bone marrow LSK (Lin^−Sca1^+ckit^+) is a less HSC-specific measure than bone marrow HSC (Lin^−Sca1^+ckit+CD48^−CD150^+); the markers Flt3 and CD135 are not present in bone marrow as they are in peripheral blood.

In data set [4] the test system is peripheral blood inflammatory markers. The data set can be described thus: Peripheral blood inflammatory markers (aged neutrophils, sVCAM-1, P-selectin, E-selectin) in SCD mouse model. Here is the method: as §1, §2
There is an increase in the aged neutrophil population in SCD.
There is evidence that SCD is associated with a chronic inflammatory state. Therefore, inflammatory markers (sVCAM-1, P-selectin, and E-selectin) in the peripheral blood of mice treated with GBT-1118 alone or with plerixafor were evaluated. […] This increase may be related to increased WBC and absolute neutrophil counts (ANC). Plasma P-selectin and E-selectin were not increased with GBT-1118 alone or with plerixafor (FIGS. 6B and 6C).

Entries after “also recorded” stand apart in the source; their conditions may differ.

Regarding `O=Cc1c(O)cccc1OC[C@@H]1CCCCN1C(=O)c1cccnc1` [GBT-1118], the “hemoglobin (Hb)” value in data set [1] (GBT-1118 via chow approx. 16 mg/mouse/day, peripheral blood before vs 2 and 3 weeks after treatment (FIG. 1A)) was “increase”. In addition, in data set [1] (GBT-1118 via chow, before vs 2 and 3 weeks after treatment (FIG. 1B)), the “hematocrit (Hct)” value is reported as “increase”. In addition, the “percentage of reticulocytes (retic %)” value in data set [1] (GBT-1118 via chow, before vs 2 and 3 weeks after treatment (FIG. 1C)) is listed as “decrease”. Also, the “number of white blood cells (WBC)” value in data set [1] (GBT-1118 via chow, before vs 2 and 3 weeks after treatment (FIG. 1D)) is “essentially unchanged”. Besides, the “peripheral blood LSKF cell concentration” value in data set [2] (SS Townes mice, compared to control (FIG. 3B)) was “significantly increased”. Further, the “percentage of peripheral blood LSKF (Lin-Sca1+ckit+Flt3-CD135-) cells mobilized” value in data set [2] (with CD45+ gating, plerixafor mobilization, 1-2 h after plerixafor, compared to control animals (FIGS. 3A and 3C)) was “higher percentage”. The “bone marrow HSCs, as % of Lin- cells” value in data set [3] (GBT-1118 alone versus control (FIG. 4A)) is “significantly increased”. For the same compound, in data set [3] (GBT-1118 versus control (FIG. 4B)), the “total number of bone marrow HSC per femur” value is “trend towards an increase; also recorded: trend towards increased”. Besides, the “plasma P-selectin” value in data set [4] (GBT-1118 alone (FIG. 6B)) and in data set [4] (GBT-1118 with plerixafor (FIG. 6B)) was “not increased” throughout. Further, the “plasma E-selectin” value in data set [4] (GBT-1118 alone (FIG. 6C)) and in data set [4] (GBT-1118 with plerixafor (FIG. 6C)) was “not increased” throughout. Besides, in data set [4] (after GBT-1118 treatment (FIG. 6A)), the “plasma sVCAM-1” value is “small but significant increase”. For the same compound, the “peripheral blood aged neutrophils (CXCR4high CD62Llow)” value in data set [4] (post-mobilization with plerixafor, GBT-1118 versus control (FIG. 5A-B)) is “not statistically significant”.
